{"source": "patent US9688957B2", "about": "“Hydrogel compositions for use in promoting tubulogenesis” (Wisconsin Alumni Research Foundation, priority 2014, dated 2017)", "assay_type_in_all_cases": "cell-based, human", "key": {"HUVECs [1]": {"test_system": "HUVECs", "test": "HUVEC tubulogenesis in growth factor-reduced MATRIGEL spots", "conditions": "10 μM SU5416, HUVECs in growth factor-reduced MATRIGEL, 48 hours", "description": "HUVECs were suspended in growth factor-reduced MATRIGEL® (BD Biosciences, San Jose, Calif.) at a density of 2×10^7 cells/mL. A 200 μm thick PDMS sheet of microwells was placed on top of a glass slide and the MATRIGEL®-cell suspension was pipetted as 0.4 μl droplets into the microwells. These arrays of MATRIGEL® “spots” were incubated at 37° C. for 30 minutes and covered in growth medium alone or with 10 μM SU5416. After 48 hours of culture, the arrays were stained with Cell Tracker Green in the same manner as in the PEG hydrogel viability assay, but without Hoechst nuclear stain or ethidium homodimer. The arrays were washed with 1×PBS and fixed for 30 minutes in 10% buffered formalin. A green fluorescence and phase contrast z-stack image of each spot was taken at 48 hours after encapsulation using a Nikon TI Eclipse microscope. Total CLS length in each individual spot was quantified manually."}, "HUVECs [2]": {"test_system": "HUVECs", "test": "HUVEC proliferation with VEGFR2 inhibition on tissue culture polystyrene (EdU)", "conditions": "10 μM SU5416, HUVECs on TCPS, 24 hours", "method": "HUVECs were plated in tissue culture polystyrene (TCPS) 24-well plates at a density of 5.0×10^4 cells/cm^2. The cells were grown in growth medium alone or with 10 μM SU5416 for 24 hours. Afterward, the medium was changed to fresh growth medium with or without 10 μM SU5416 and 20 μM EdU. After 5 hours of incubation, the cells were fixed in 10% buffered formalin for 30 minutes and stained using the Click-iT EdU 488 proliferation kit (Invitrogen). The staining procedure was slightly modified from the manufacturer's instructions, as Alexa Fluor® 488 was diluted to half the recommended concentration. The cells were photographed using a Nikon TE300 fluorescence microscope and proliferation was quantified via by counting nuclei staining positive for EdU and normalizing the number to total nuclei."}, "HUVECs [3]": {"test_system": "HUVECs", "test": "HUVEC proliferation in 3D PEG hydrogel array spots (Click-iT EdU)", "conditions": "10 μM SU5416, 24 hours", "description": "(§1) During proliferation and tubulogenesis experiments, the arrays of encapsulated cells were cultured in growth medium alone or with 10 μM SU5416 for 24 hours only. Afterward, the cells were incubated for 5 hours in growth medium with 20 μM 5-ethynyl-2′-deoxyuridine (EdU) (Invitrogen) as a proliferation marker and, if appropriate, 10 μM SU5416. Afterward, the arrays were stained with Cell Tracker Green in the same manner as the viability assay, but without Hoechst nuclear stain or ethidium homodimer. The arrays were washed with 1×PBS, fixed for 30 minutes in 10% buffered formalin and stained using the Click-iT EdU 594 proliferation kit (Invitrogen). The staining procedure was slightly modified from the manufacturer's instructions, as Alexa Fluor® 594 was diluted to half the recommended concentration. The arrays were soaked in 1×PBS overnight and photographed using a Nikon TE300 fluorescence microscope. Proliferation was quantified by counting the number of EdU-positive cells and dividing by the total number of nuclei in the post. Tubulogenesis was quantified by manually measuring total capillary-like structure (CLS) length in each post as labeled by Cell Tracker Green. To obtain confocal microscopy images, the hydrogel arrays were mounted in Prolong Gold antifade solution (Invitrogen) and photographed on a Nikon A1R-Si confocal microscope."}, "HUVECs [4]": {"test_system": "HUVECs", "test": "HUVEC tubulogenesis (total CLS length) in 3D PEG hydrogel array spots", "conditions": "10 μM SU5416, 24 hours", "description": "as §1\nHydrogel solutions were created by combining 36, 42 or 60 mg/mL 20 kDa 8-arm norbornene-functionalized PEG with 0 to 2 mM CRGDS (SEQ ID NO:2) adhesion peptide, additional CRDGS (SEQ ID NO:32) scrambled adhesion peptide to maintain a total adhesion peptide concentration of 2 mM, […] (SEQ ID NO:27) crosslinking peptide at a 2× molar excess concentration to PEG and 0.05% IRGACURE 2959 photoinitiator in phosphate buffered saline. The solutions were polymerized into hydrogels under UV light (90 mW/cm^2, 365 nm, 2 seconds). HUVECs were encapsulated at a density of 2.0×10^7 […] in hydrogels and incubated in M199 supplemented with EGM2 growth supplement. The cells were stained with Cell Tracker Green CMFDA, photographed 24 hours after seeding and scored for total tubule length in the spots. Results are shown FIGS. 18, 28 and 29."}, "HUVECs [5]": {"test_system": "HUVECs", "test": "HUVEC viability in 3D PEG hydrogel array spots", "conditions": "10 μM SU5416, 48 hours", "description": "During hydrogel array fabrication, hydrogel spots contained HUVECs at a density of 2×10^7 cells/mL. The concentration of CRGDS adhesion peptide (SEQ ID NO:2) was adjusted to 0, 0.25, 0.5, 1.0 and 2.0 mM through the addition of PEGNB-CRGDS (SEQ ID NO:2), with the total pendant peptide concentration in all hydrogel spots maintained at 2 mM by adding PEGNB-CRDGS (SEQ ID NO:2). Total polymer percent weight was varied between 4.2, 5 and 7% w/v in the hydrogel spots and 4, 6 and 8% w/v in the backgrounds, with low percent weight hydrogel spots corresponding to low weight percent backgrounds and high percent weight hydrogel spots corresponding to high percent weight backgrounds. During viability experiments, arrays of encapsulated cells were cultured for 48 hours in growth medium alone or with 10 μM SU5416 (Sigma Aldrich), a known inhibitor of VEGFR2 signaling. Medium was replaced 24 hours after encapsulation. After 48 hours of culture, the arrays were washed with serum-free M199 and stained with 5 μM Cell Tracker Green (Invitrogen) for 45 minutes in M199. After 15 minutes of staining, the staining solution was supplemented with Hoechst nuclear stain (Invitrogen) to achieve a final concentration of 10 μg/mL. After staining, the arrays were washed with serum free M199 and incubated for 30 minutes in growth medium containing 2 μM ethidium homodimer (Invitrogen). The arrays were then washed with 1×PBS and fixed for 30 minutes in 10% buffered formalin (Fisher). The arrays were soaked in 1×PBS overnight and photographed using a Nikon TE300 fluorescence microscope within 48 hours of fixation. Viability was quantified by dividing the number of live cell nuclei by total nuclei in the post."}}, "data": [{"smiles": "Cc1cc(C)c(/C=C2\\C(=O)Nc3ccccc32)[nH]1", "note": "[SU5416]", "values": [{"measurement": "decrease in total tubule length compared to growth medium only", "setting": "HUVECs [1]", "result": 50, "unit": "%"}, {"measurement": "decrease in proliferation compared to the growth medium control", "setting": "HUVECs [2]", "result": 20, "unit": "%"}, {"measurement": "effect of VEGFR2 inhibition on proliferation", "setting": "HUVECs [3]; high modulus, 0 mM CRGDS", "result": "significant increase in proliferation"}, {"measurement": "effect of VEGFR2 inhibition on proliferation", "setting": "HUVECs [3]; high modulus, all CRGDS concentrations except 0 mM", "result": "significant decreases in proliferation"}, {"measurement": "effect of VEGFR2 inhibition on proliferation", "setting": "HUVECs [3]; low modulus, 0, 0.25 and 1 mM CRGDS", "result": "significant decrease"}, {"measurement": "effect of VEGFR2 inhibition on proliferation", "setting": "HUVECs [3]; low modulus, 2 mM CRGDS", "result": "increased significantly"}, {"measurement": "effect of VEGFR2 inhibition on HUVEC proliferation", "setting": "HUVECs [3]; majority of hydrogel conditions", "result": "decreased"}, {"measurement": "effect of VEGFR2 inhibition on proliferation", "setting": "HUVECs [3]; medium modulus, 0.5 and 2 mM CRGDS", "result": "significant proliferation decreases"}, {"measurement": "effect of VEGFR2 inhibition on CLS length", "setting": "HUVECs [4]; high modulus, 1 mM CRGDS spots", "result": "decreased CLS length"}, {"measurement": "effect of VEGFR2 inhibition on CLS length", "setting": "HUVECs [4]; low modulus, 2 mM CRGDS spots", "result": "increased CLS length"}, {"measurement": "effect of VEGFR2 inhibition on CLS length", "setting": "HUVECs [4]; medium modulus, 0 mM CRGDS spots", "result": "decreased CLS length"}, {"measurement": "effect of VEGFR2 inhibition on CLS length compared to growth medium controls", "setting": "HUVECs [4]; most hydrogel conditions", "result": "did not cause significant changes"}, {"measurement": "reduction of viability with VEGFR2 inhibition", "setting": "HUVECs [5]; all modulus conditions, spots with 2 mM CRGDS", "result": "insignificant"}, {"measurement": "effect of VEGFR2 inhibition on cell viability", "setting": "HUVECs [5]; conditions without CRGDS", "result": "significantly reduced"}, {"measurement": "effect of VEGFR2 inhibition on viability", "setting": "HUVECs [5]; high modulus, CRGDS at or above 0.5 mM", "result": "not significant"}]}]}
